Values of other authors in patent US20120322767A1, “FORMULATIONS OF BISPHOSPHONATES AND VITAMIN D SUIUTABLE FOR INTERMITTENT INTRAMUSCULAR AND SUBCUTANEOUS ADMINISTRATION” (priority 2009, published 2012).

Assays:
[1] = humans, ratio of urinary or plasma concentrations (AUC) after intravenous and oral administration
[2] = man, oral, 100,000 IU, maintained for two months

Oral bioavailability [1] | Molecule | Serum levels of calcidiol [2]
3-7% | CC(O)(P(=O)(O)O)P(=O)(O)O [etidronate] | –
~0.3% | NCCC(O)(P(=O)(O)O)P(=O)(O)O [pamidronate] | –
1-2% | O=P(O)(O)C(Cl)(Cl)P(=O)(O)O [clodronate] | –
– | vitamin D | > 80 nM
